From paper PMC8147214, “Identification and Characterization of a Novel, Cold-Adapted D-Xylobiose- and D-Xylose-Releasing Endo-β-1,4-Xylanase from an Antarctic Soil Bacterium, Duganella sp. PAMC 27433” (Biomolecules, 2021)

Tested on: T1, rXylR
T1 construct: gene XylR; mature GH10 xylanase, signal peptide (1-23) removed, N-terminal His6 tag (pET-28a(+)) kept; E. coli BL21; precursor 373 aa; mature N-terminus AEDTPEP by primer
Assay: p-nitrophenol release, Michaelis-Menten non-linear regression
Assay type: biochemical, Duganella sp. PAMC 27433
Settings: 50 mM sodium phosphate pH 5.5, 40 °C; substrate 1-10 mM
Text: p-nitrophenol release, Michaelis-Menten non-linear regression on rXylR

- Km: 1210 µM
SMILES: O=[N+]([O-])c1ccc(O[C@@H]2O[C@H](CO)[C@@H](O[C@@H]3O[C@H](CO)[C@@H](O)[C@H](O)[C@H]3O)[C@H](O)[C@H]2O)cc1 [pNP-β-D-cellobioside]
